Assay results: US11872210B2, “Thiol isomerases inhibitors and use thereof” (WESTERN NEW ENGLAND UNIVERSITY, priority 2017, dated 2024)

Columns and labels:
HeLa cells = experiment: PrestoBlue cell proliferation assay, HeLa; format: cell-based
Method: (§1) Cells were plated at 6,000 cells/well in a 96-well plate and treated with the indicated concentration of zafirlukast 24 hours later. Cells were allowed to grow for an additional 24 hours before alterations in growth were measured by the PrestoBlue cell proliferation assay in triplicate. Fluorescence readings with an excitation at 570 nm and emission of 600 nm were collected and treated samples were converted to a percentage of the untreated controls. OVCar8 (human ovarian cancer cell line), HCT116 (human colon cancer), HeLa (cervical cancer cell line) and MDA-MB-231 (breast cancer cell line) cell lines were examined for their ability to inhibit cell proliferation. […] Table 1 illustrates the results of a cell proliferation assay testing zafirlukast against OVCar8 cells, HCT116 cells, HeLa cells and MDA-MB-231 cells.

MDA-MB-231 cells = experiment: PrestoBlue cell proliferation assay, MDA-MB-231; format: cell-based
Method: as §1

ERp57 = target: T1, ERp57 (Homo sapiens, UniProt P30101); experiment: Insulin-based turbidometric assay of thiol isomerase inhibitory activity (ERp57); format: biochemical; conditions: insulin turbidity assay, 6 point dose curve
T1 construct: purchased AbCam (Cambridge Mass.)
T1 sequence (P30101 25-505): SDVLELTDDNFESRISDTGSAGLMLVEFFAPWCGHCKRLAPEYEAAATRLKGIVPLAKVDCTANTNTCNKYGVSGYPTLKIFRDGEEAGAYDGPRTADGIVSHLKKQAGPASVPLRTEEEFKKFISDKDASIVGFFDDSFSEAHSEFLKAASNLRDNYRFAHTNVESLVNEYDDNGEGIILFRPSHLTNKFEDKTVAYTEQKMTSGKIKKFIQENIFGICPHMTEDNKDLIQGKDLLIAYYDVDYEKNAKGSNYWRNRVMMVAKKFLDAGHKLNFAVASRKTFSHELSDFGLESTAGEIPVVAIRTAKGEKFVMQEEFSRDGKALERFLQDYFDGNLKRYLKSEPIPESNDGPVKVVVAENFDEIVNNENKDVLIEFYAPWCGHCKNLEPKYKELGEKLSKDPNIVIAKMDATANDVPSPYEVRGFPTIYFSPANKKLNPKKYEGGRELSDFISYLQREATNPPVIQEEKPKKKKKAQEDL

OVCar8 cells = experiment: PrestoBlue cell proliferation assay, OVCar8; format: cell-based, human; conditions: OVCar8, ovarian cancer, 24 hours treatment
Method: as §1

human washed platelets = experiment: Collagen stimulated platelet aggregation; format: cell-based; conditions: collagen 1 μg/mL, 3 minutes
Method: Human Platelet Preparation: 50 mL of blood was drawn from drug free, consenting individuals, into a syringe containing 5 mL sodium citrate (4% w/v) and 7.5 mL warmed ACD (85 mM sodium citrate, 71 mM citric acid and 110 mM glucose). Blood was centrifuged at 102 g for 20 minutes to obtain platelet-rich plasma (PRP), which was then decanted and 104 prostacyclin (PGI2 125 μg/mL, solubilized in ethanol) added. Platelets were pelleted by centrifugation at 1413 g for 10 minutes, platelet poor plasma was discarded and the pellet resuspended in 25 mL Tyrode's-HEPES buffer (134 mM NaCl, 2.9 mM KCl, 0.34 mM Na2HPO4, 12 mM NaHCO3, 20 mM HEPES, 1 mM MgCl2 and 5 mM glucose pH 7.3), 3 mL of ACD and 10 μL PGI2 were added and then following centrifugation at 1413 g for 10 minutes, the platelet pellet was re-suspended to the appropriate cell density using Tyrode's buffer. Platelets were rested for 30 minutes at 30° C. to allow platelet responses to recover.
Platelet Aggregation: 445 μL of washed platelets at (4×10^8 cells/mL) were incubated for 5 minutes with vehicle (0.1% (v/v) DMSO) or 54 zafirlukast or montelukast. 50 μL of collagen 1 μg/mL (final), was added and light transmission monitored for 3 minutes at 37° C. with constant stirring (1200 rpm) using an aggregometer (Chronolog, USA).
Statistical analyses: All raw data was analyzed by 1-way ANOVA and where appropriate normalized to vehicle. GraphPad Prism was used to perform statistical analysis by ANOVA or students T test. The level of significance of p values is as follows, *p<0.05,**p<0.01, ***p<0.005. Data presented are mean+/−standard error of the mean.
Zafirlukast inhibits platelet aggregation: Human washed platelets (4×10^8 cells/mL) were pre-treated with 0.1 μM-10 μM zafirlukast or vehicle. Platelets were stimulated with collagen 1 μg/mL and allowed to aggregate for 3 minutes. Aggregation traces representative of the response were obtained and dose responses compared.

platelets = experiment: Platelet spreading upon collagen; format: cell-based; conditions: 0.1 μM-10 μM
Method: Platelet responses in the presence of zafirlukast, (0.1 μM-10 μM) were tested in a range of platelet functional assays including aggregation, granule secretion and spreading studies.

thrombus formation = experiment: Thrombus formation in mice after laser injury of cremaster muscle arterioles (intravital microscopy); format: in vivo, C57/BL6 mouse; conditions: infused to circulating concentration of 20 μM, 5 minutes
Method: The effects of zafirlukast on thrombus formation in mice was determined following laser injury of cremaster muscle arterioles, and observed by intravital microscopy. Male C57/BL6 mouse platelets were labelled with DyLight 649-conjugated anti-GPIb antibody (0.2 μg/g body weight) and either vehicle or zafirlukast (ZFL) infused (at a volume required to achieve a circulating concentration of 20 μM). Following laser injury, images were recorded for 5 minutes. […] FIG. 6 illustrates the effects of ZFL on bleeding were determined by tail bleeding assay. Vehicle or ZFL (at a volume required to achieve a circulating concentration of 20 μM) were infused into the femoral veins of C57/BL6 mice, 5 minutes prior to tail biopsy. 0.5 cm of tail tip was excised and blood collected in phosphate-buffered saline (PBS), and time to cessation of bleeding was recorded. […] Graphs represent mean±SEM, n=10 per treatment, data analyzed by Student's T test, ***p<0.005.

IC50 (HeLa cells; Homo sapiens, cervical cancer, 24 hours treatment): 30 µM | IC50 (MDA-MB-231 cells; Homo sapiens, MDA-MB-231, breast cancer, 24 hours treatment): 100 µM | inhibitory range on ERp57 (ERp57): 30 to 300 µM | IC50 (OVCar8 cells; Homo sapiens, OVCAR-8, 24 h): 5 to 10 µM | IC50 (OVCar8 cells): 6 µM
Structure (SMILES): COc1cc(C(=O)NS(=O)(=O)c2ccccc2C)ccc1Cc1cn(C)c2ccc(NC(=O)OC3CCCC3)cc12 [zafirlukast, 4-(5-cyclopentyloxycarbonylamino-1-methylindol-3-ylmethyl)-3-methoxy-N-o-tolylsulfonylbenzamide]
sensitivity of cell proliferation (in words) (HeLa cells; compared with OVCar8 and HCT116): less sensitive | sensitivity of cell proliferation (in words) (MDA-MB-231 cells; MDA-MB-231, compared with OVCar8 and HCT116): less sensitive | inhibition of platelet aggregation (in words) (human washed platelets; 0.1 μM): did not significantly inhibit | inhibition of platelet aggregation (in words) (human washed platelets; 0.3 μM): did not significantly inhibit | platelet aggregation, normalized to vehicle (human washed platelets; 0.6 μM): 54.8% | platelet aggregation, normalized to vehicle (human washed platelets; 1.25 μM): 54.9% | platelet aggregation, normalized to vehicle (human washed platelets; 2.5 μM): 40.00% | platelet aggregation, normalized to vehicle (human washed platelets; 5 μM): 22.47% | platelet aggregation, normalized to vehicle (human washed platelets; 10 μM): 18.1% | inhibition at 0.6 µM (human washed platelets; Homo sapiens, Platelet, 0.05 h, 0.6 μM): 45% | inhibition at 1.25 µM (human washed platelets; Homo sapiens, Platelet, 0.05 h, 1.25 μM): 45% | inhibition at 2.5 µM (human washed platelets; Homo sapiens, Platelet, 0.05 h, 2.5 μM): 60% | inhibition at 5 µM (human washed platelets; Homo sapiens, Platelet, 0.05 h, 5 μM): 77.5% | inhibition at 10 µM (human washed platelets; Homo sapiens, Platelet, 0.05 h, 10 μM): 81.9% | platelet spreading upon collagen (in words) (platelets): inhibit | thrombus size (maximum fluorescence intensity), in words (thrombus formation): reduction in thrombus size
